Patent US20030186946A1, “Suppression of cytotoxic protein conformers” (priority 2002, published 2003)
Like-named read-outs stand apart in the source and are kept apart here. Blank lines part the entries; values can stand above or below the molecule they belong to.

Experiments:
human amylin [1] = target: T1, human amylin (Homo sapiens, UniProt P10997); assay: Circular dichroism assay of amylin conformation; assay type: biochemical; set-up: Amylin is a 37-residue; C-terminally amidated peptide having a disulfide bridge between the cysteines at residues 2 and 7; purchased Bachem Calif; (Torrance, Calif.); host or cells: chemical synthesis; settings: 200 μM Amaranth, approximately 4 μM human amylin, 4% HFIP (FIG. 9F)
T1 sequence (P10997 34-70 limits assumed): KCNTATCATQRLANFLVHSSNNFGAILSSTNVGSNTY
Method: Preparation of monomeric human amylin. Human amylin (batch 0551805) was obtained from Bachem (Torrence, Calif.). Stock solutions of amylin were prepared as described by Padrick and Miranker, 2002. Human amylin was solubilised in 6M guanidine HCL/50 mM potassium phosphate, pH 6.0, and loaded onto a C18 reversed-phase spin column (Harvard Biosciences). The column was then washed sequentially with 10% Acetonitrile, 0.2% trifluoroacetic acid and water. Monomeric amylin was eluted in 100% HFIP (hexafluoroisopropanol). This stock solution of amylin was then used for all Circular Dichroism experiments.
Circular Dichroism Assay. Circular dichroism spectra were measured on a Pi-Star 180 spectrometer (Applied Photophysics, Leatherhead, UK). Measurements were carried out in either 100% HFIP or 100 mM potassium chloride/50 mM potassium phosphate buffer (pH 7.4) and 2.5% HFIP at 25° C. A stock solution of monomeric human amylin was diluted into buffer to a final concentration of 2.5% HFIP and approximately 5 μM amylin to initiate amylin fibril formation. Spectra were collected at 1 nm intervals with a sample period of 25 μs and adaptive sampling of ±0.01 mdeg. Measurements were recorded immediately following addition of the human amylin stock solution to phosphate buffer in the presence or absence of Congo red or amaranth.
Human amylin (100 μg) was purified on a C18 spin column to give a stock solution in 100% HFIP as described in the methods. A spectrum of this stock solution was collected at 1 nm intervals in a 0.1 cm path length quartz cell (FIG. 9B). The stock solution of monomeric amylin in 100% HFIP was diluted to 2.5% HFIP in 100 mM potassium chloride/50 mM potassium phosphate buffer (pH 7.4). Human amylin concentration was approximately 5 μM. A spectrum was collected at 1 nm intervals in a 0.5 cm path length quartz cell in the absence (FIG. 9C) or presence of 20-fold molar excess of Congo red over human amylin (FIG. 9D). The stock solution of monomeric amylin in 100% HFIP was diluted to 4% HFIP in 100 mM potassium chloride/50 mM potassium phosphate buffer (pH 7.4) containing decreasing concentrations of Congo red as indicated in the Figure. Human amylin concentration was approximately 4 μM. Spectra were collected at 1 nm intervals in a 0.1 cm path length quartz cell (FIG. 9E). The stock solution of monomeric amylin in 100% HFIP was diluted to 4% HFIP in 100 mM potassium chloride/50 mM potassium phosphate buffer (pH 7.4) containing 200 μM Amaranth. Human amylin concentration was approximately 4 μM. Spectra were collected at 1 nm intervals in a 0.1 cm path length quartz cell (FIG. 9F).

human amylin [2] = target: T1, human amylin; settings: 10 μM thioflavin-T
Method: Thioflavin-T binding fluorescent assays. The effects of various polycyclic compounds on islet amyloid formation were measured by fluorescence spectroscopy, using a SpectraMAX Gemini XS Fluorescence Spectrophotometer (Molecular Devices Corporation, Sunnyvale, Calif.). Excitation and emission maxima were set to 450 nm and 510 nm respectively using a cutoff filter at 495 nm. Thioflavin-T binds to amylin fibrils, but not to monomeric amylin (Goldsbury et al., (1999), J. Mol. Biol., 285:33-39). […] The rate of amylin fibril formation was determined by following thioflavin-T fluorescence in the presence or absence of the potential inhibitory drug. […] Background fluorescence by acridine and acridine orange in the absence of amylin was subtracted from the experimental results. The control preparation contained human amylin and thioflavin-T in the absence of drug. The rate of fluorescence enhancement under these conditions was used to compare amylin fibril formation in the absence and presence of the drug. All other experimental conditions were identical.
Tri-prolyl amylin and rat amylin with thioflavin-T were also used as additional controls.
Each data point represents the mean±s.e.m of three separate reactions.
Effect of chlorpromazine on enhancement of thioflavin-Tfluorescence by human amylin (FIG. 2). Chlorpromazine (700 μM) (π) was incubated in 10 mM tris p H 7.4, with monomeric human amylin (70 μM) in the presence of thioflavin-T (10 μM). The fluorescence of the reaction was monitored over 24 hours as described in the methods. […] Each data point represents the mean±s.e.m of three separate reactions.
Effect of selected polycylic compounds on enhancement of thioflavin-Tfluorescence by human amylin (FIG. 3). Acridine, acridine orange, neutral red and methylene blue are selected examples of fused tricyclic ring compounds. […] Compound structures are shown adjacent to the appropriate graph. […] Fluorescence was monitored over 24 h as described in the Methods. A preparation containing human amylin and thioflavin-T only (▪), was included as a comparison in the absence of drug. […] Each data point represents the mean±s.e.m of three independent experiments.

human amylin [3] = target: T1, human amylin; assay: Radiolabelled precipitation assay of amylin fibril formation; assay type: biochemical; set-up: Amylin is a 37-residue; C-terminally amidated peptide having a disulfide bridge between the cysteines at residues 2 and 7; purchased Bachem Calif; (Torrance, Calif.); host or cells: chemical synthesis; settings: for effect on precipitable amyloid formation: 200 μM compound, 10 μM human amylin, 16,000×g (FIG. 8)
Method: Radiolabelled Precipitation Assays. The precipitation of radiolabelled human and rat amylin fibrils was used as an independent method to monitor assembly of amylin fibrils in the presence or absence of potential inhibitors of amylin fibril formation. […] Incubation mixtures were then centrifuged at either 16,000×g or 100,000×g, for 20 min, and the amount of [^3H]-human amylin remaining in the supernatant after centrifugation was determined (Beckman LSW 3801 β-counter, USA). Results were expressed as percentages of precipitable counts per minute, relative to total radioactivity in the supernatant.
Incorporation of [^3H]-amylin into amylin fibrils was followed for 24 hours. Human amylin fibrils were precipitated by centrifugation at either 16,000×g (FIG. 7A) or at 100,000×g (FIG. 7B). Rat amylin (10 μM) in the presence of [^3H]-rat amylin was used as a non-fibril forming control (♦) (FIG. 7A). The results are shown as the percentage of precipitable radioactive amylin, relative to total radioactivity in the supernatant at each time point. Each data point represents the mean±s.e.m of three separate reactions.
The incorporation of radioactive monomeric amylin into the human amylin fibrils as they form, can be used to measure the rate at which amylin fibrils form in the presence or absence of a potential inhibitory drug. Amylin fibrils can be separated from solution by centrifugation and the amount of radioactive amylin precipitated in the amylin fibril pellet is then used as a measure of the amount of amylin fibrils present at that time.
Thioflavin-T, although not polycyclic, is widely used in fluorescent assays to measure amylin fibril formation. Incorporation of radioactivity into the pellet of an aliquot of the reaction mixture centrifuged at 16,000×g, for 20 minutes was monitored over the time periods indicated. Rat amylin (10 μM) with [^3H]-rat amylin added was used as a non fibril forming control (∘) in each experiment. The results are shown as the percentage of precipitable radioactive amyloid, relative to total radioactivity in the supernatant at each time point. Each data point represents the mean±s.e.m of three separate experiments.

human amylin [4] = target: T1, human amylin; assay: Electron microscopy of human amylin fibrils; assay type: biochemical; set-up: Amylin is a 37-residue; C-terminally amidated peptide having a disulfide bridge between the cysteines at residues 2 and 7; purchased Bachem Calif; (Torrance, Calif.); host or cells: chemical synthesis
Method: Electron Microscopy. […] Samples were removed at various time points and prepared for electron microscopy. Aliquots (8 μl) of the amylin fibril preparations were absorbed to glow-discharged carbon-coated collodion film on 200-mesh copper grids for 1 min. Grids were blotted, washed twice in droplets of deionised water and stained with 2% (w/v) uranyl acetate. Grids were examined in a Phillips Technai transmission electron microscope operated at 120 kV.
Samples were removed at various time points and prepared for electron microscopy according to the procedure described in the methods.
Electron Microscopy of human amylin fibrils in the presence and absence of quinacrine (FIG. 5). A 100 fold molar excess of quinacrine was incubated with human amylin. Samples were removed at various time points and prepared for electron microscopy according to the procedure described in the methods.
Electron Microscopy of human amylin fibrils in the presence and absence of selected polycyclic compounds (FIG. 6). […] Samples were removed and prepared for electron microscopy as described in the Methods. All experiments were performed in triplicate and the pictures above are representative of at least 6 photographs taken at each magnification.

RINm5F cells = assay: Cytotoxicity assay in RINm5F cells (calcein-AM / ethidium homodimer-1 staining); settings: for cytotoxicity of amylin peptide to RINm5F cells: 30 μM peptide, 22 h, compared to vehicle control
Method: Cell Culture and Cytotoxicity Assays. RINm5F cells were cultured in RPMI 1640 medium containing 10% fetal bovine serum, 290 μg/mL L-glutamine, 100 IU/mL penicillin and 100 μg/mL streptomycin. Cells were plated at a density of 15×1 cells per well, incubated for 48 h, rinsed with PBS and placed in fresh medium containing Congo red. Freshly prepared human amylin in Milli-Q water, was preincubated with Congo red for 30 min, then added to the cell culture medium to give a final concentration of 30 μM. Cells were treated for 22 h with human amylin in the presence or absence of 100 μM Congo red. Cell viability was determined by double-staining with calcein-AM and ethidium homodimer-1. Green fluorescence of live cells and red fluorescence marking nuclei of dead cells were simultaneously visualized using a Zeiss Axiovert S100 microscope equipped with a Zeiss filter set # 09. Photographs were taken at 400× magnification using a Zeiss AxioCam digital camera.
A. Representative fluorescence micrograph of RINm5F cells treated with 30 μM human amylin for 22 h and stained with calcein-AM and ethidium homodimer-1 to show live cells (green) and dead cells (red). […] B. A representative micrograph of RINm5F cells treated with 30 μM human amylin and 100 μM Congo red stained as above. […] The percentage of live cells was determined for cells treated for 22 h with vehicle; 30 μM human amylin; 30 μM human amylin in the presence of 100 μM Congo red; or 30 μM rat amylin. Experiments were repeated independently 10 times except for human amylin plus Congo red (A+CR) which was repeated five times. Error bars represent the s.e.m of live and dead cell counts over 6-12 fields per condition.

[5] = 1200 μM compound (20-fold molar excess), 60 μM human amylin, over 24 h (FIG. 3)
[6] = 1200 μM compound, 60 μM human amylin, 10 mM tris pH 7.4, 24 h (FIG. 6)

Molecule: O=S(=O)([O-])c1ccc2c(N=Nc3ccc(S(=O)(=O)[O-])c4ccccc34)c(O)c(S(=O)(=O)[O-])cc2c1.[Na+].[Na+].[Na+] [Amaranth]
effect on β-conformer formation of human amylin (circular dichroism) (human amylin [1]): prevents formation of β-conformers and instead arrests the amylin peptide in an α-helical conformation

Molecule: c1ccc2nc3ccccc3cc2c1 [acridine]
enhancement of thioflavin-T fluorescence by human amylin (human amylin [2]; [5]): moderate reduction in thioflavin-T enhanced fluorescence
effect on precipitable amyloid formation (human amylin [3]): no effects on amyloid formation

Molecule: CN(C)CCCN1c2ccccc2Sc2ccc(Cl)cc21 [chlorpromazine]
inhibition of amylin fibril formation (human amylin [2]; 700 μM chlorpromazine, 70 μM human amylin, over 24 hours (FIG. 2)): approximately 60%
enhancement of thioflavin-T fluorescence by human amylin (human amylin [2]; [5]): little inhibition of amylin fibril associated thioflavin-T fluorescence enhancement
morphology of human amylin fibrils (electron microscopy) (human amylin [4]; [6]): still formed characteristic amylin fibrils
effect on precipitable amyloid formation (human amylin [3]): no effects on amyloid formation

Molecule: CN(C)c1ccc2nc3ccc(N(C)C)cc3[s+]c2c1 [methylene blue]
enhancement of thioflavin-T fluorescence by human amylin (human amylin [2]; [5]): no increase in thioflavin-T enhanced fluorescence
enhancement of thioflavin-T fluorescence by human amylin (human amylin [2]; 1200 μM compound (20-fold molar excess), 60 μM human amylin, over 24 h (FIG. 3), listed as Methylene blue): complete inhibition
effect on precipitable amyloid formation (human amylin [3]): no effects on amyloid formation
effect on precipitable amyloid formation (human amylin [3]; listed as Methylene blue): no effect

Molecule: CCN(CC)CCCC(C)Nc1c2ccc(Cl)cc2nc2ccc(OC)cc12 (stereo not drawn) [quinacrine]
rate of human amylin fibril formation (electron microscopy) (human amylin [4]; 7000 μM quinacrine, 70 μM human amylin, 1.5, 5 and 26 hours): appears to slow the rate of human amylin fibril formation
morphology of human amylin fibrils (electron microscopy) (human amylin [4]; 7000 μM quinacrine, 70 μM human amylin, 5 hours and 26 hours): large aggregates with few defined fibrils

Molecule: CN(C)[C@@H]1C(=O)C(C(N)=O)=C(O)[C@@]2(O)C(=O)C3=C(O)c4c(O)cccc4[C@@](C)(O)[C@H]3C[C@@H]12 [tetracycline]
enhancement of thioflavin-T fluorescence by human amylin (human amylin [2]; 700 μM compound, 70 μM human amylin, 10 mM tris pH 7.4, over 72 hours (FIG. 1)): initial but significantly decreased formation of a mylin fibril-associated fluorescence up to 2 h ours, followed by a gradual decrease in fluorescence
enhancement of thioflavin-T fluorescence by human amylin (human amylin [2]; [5]): immediate increase in fluorescence occurred, followed by a gradual decrease in fluorescence over the next 24 h
intrinsic cytotoxicity of compound to RINm5F β cells (RINm5F cells; relative molar ratios which produced suppression of amyloid aggregation (low μM)): cytotoxic
rate of formation of human amylin fibrils (electron microscopy) (human amylin [4]; 700 μM tetracycline, 70 μM human amylin, 1.5 hours and 5 hours): appears to slow the rate of formation of human amylin fibrils
morphology of human amylin fibrils (electron microscopy) (human amylin [4]; 700 μM tetracycline, 70 μM human amylin, 29 hours and 48 hours): short fragmented fibrils
morphology of human amylin fibrils (electron microscopy) (human amylin [4]; [6]): short fragmented structures
morphology of pre-formed amylin fibrils (electron microscopy) (human amylin [4]; human amylin pre-incubated for 20 h, then tetracycline for 48 h): fragments of amylin fibrils interdispersed with smaller fibrils
reduction in the incorporation of radioactive human amylin into precipitable amylin fibrils (human amylin [3]; 100 μM tetracycline, 10 μM human amylin, 16,000×g): ~50%
percentage of precipitable amylin fibrils on centrifugation at 100,000×g (human amylin [3]; 100 μM tetracycline, 10 μM human amylin, 100,000×g (FIG. 7B)): unaffected
percentage of precipitable amyloid, after the decrease (human amylin [3]; 200 μM tetracycline, 10 μM human amylin, 50 h incubation period): ~60%
percentage of precipitable amyloid, before the decrease (human amylin [3]; 200 μM tetracycline, 10 μM human amylin, start of the decrease): approximately 85%

effect on precipitable amyloid formation (human amylin [3]): no effects on amyloid formation
Molecule: Cc1ccc2c(c1)sc(-c1ccc(N(C)C)cc1)[n+]2C.[Cl-] [thioflavin-T]

Molecule: human amylin
cytotoxicity of amylin peptide to RINm5F cells (RINm5F cells): significant increase in cell death

Molecule: rat amylin: synthetic rat amylin from Bachem; non-fibril forming control
cytotoxicity of amylin peptide to RINm5F cells (RINm5F cells): not cytotoxic
